Assay results reported in patent US20090239828A1, “Adhesive preparation” (priority 2006, published 2009).

Experiments:
[1] = Clinical test, once daily oral administration to patients with osteoporosis; conditions: human, in vivo
[2] = Oral administration in rat models of osteoporosis; conditions: in vivo; from the minimum effective dose in oral administration in rat models; read-out: sum of the AUC value of minodronic acid per month that gives a suppressive effect on osteoporosis
Description: The effective blood concentration of the bisphosphonic acid derivative for human can be extrapolated from results of various clinical tests, animal experiments, etc. For example, when minodronic acid hydrate was used, the sum of the AUC value of minodronic acid per month that gives a suppressive effect on osteoporosis was about 5 ng·hr/mL or more, from the minimum effective dose in oral administration in rat models of osteoporosis.

SMILES: O=P(O)(O)C(O)(Cc1cnc2ccccn12)P(=O)(O)O [minodronic acid hydrate, 1-hydroxy-2-(imidazo[1,2-a]pyridin-3-yl)ethylidenebisphosphonic acid]
- AUC [1]: ≥ 1 ng·h/mL
- AUC [2]: ≥ 5 ng·h/mL
